Common to all, as to type: biochemical
For one data set, the target named is T1, recombinant human HSD1 (Homo sapiens, UniProt P14061).
T1 construct: made in house; host or cells: Sf9 insect cells
T1 sequence (P14061 1-328): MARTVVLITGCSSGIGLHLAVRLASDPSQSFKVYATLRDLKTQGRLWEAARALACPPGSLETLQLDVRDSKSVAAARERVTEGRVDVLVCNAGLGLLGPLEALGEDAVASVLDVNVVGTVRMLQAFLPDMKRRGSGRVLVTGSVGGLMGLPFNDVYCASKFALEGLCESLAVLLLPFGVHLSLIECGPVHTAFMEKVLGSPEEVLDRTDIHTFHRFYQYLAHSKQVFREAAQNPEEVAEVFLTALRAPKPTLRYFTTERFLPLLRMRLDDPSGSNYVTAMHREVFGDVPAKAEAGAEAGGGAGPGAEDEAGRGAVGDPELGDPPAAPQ
As to the kind of experiment: HSD1 inhibition by HPLC with tritium labeled estrone/estradiol. To be noted: for inhibition at 1 µM / HSD1 inhibition %: 1 μM.

The next data set deals with T2, MAO-B (Homo sapiens, UniProt P27338).
T2 construct: purchased Sigma-Aldrich
T2 sequence (P27338 1-520): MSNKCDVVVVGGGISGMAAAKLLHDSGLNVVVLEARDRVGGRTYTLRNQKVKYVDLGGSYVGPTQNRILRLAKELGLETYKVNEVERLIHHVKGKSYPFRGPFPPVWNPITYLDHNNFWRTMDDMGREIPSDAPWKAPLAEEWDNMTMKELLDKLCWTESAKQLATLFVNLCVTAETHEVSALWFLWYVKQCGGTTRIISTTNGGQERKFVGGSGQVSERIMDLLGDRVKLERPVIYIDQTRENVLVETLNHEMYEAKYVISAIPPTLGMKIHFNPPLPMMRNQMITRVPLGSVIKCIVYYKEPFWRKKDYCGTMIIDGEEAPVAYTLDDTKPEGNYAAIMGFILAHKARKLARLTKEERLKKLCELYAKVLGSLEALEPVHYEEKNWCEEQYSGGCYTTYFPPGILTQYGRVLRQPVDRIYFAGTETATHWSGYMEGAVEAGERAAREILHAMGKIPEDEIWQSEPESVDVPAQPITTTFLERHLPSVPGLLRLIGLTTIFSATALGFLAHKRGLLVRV
As to the kind of experiment: continuous spectrophotometric MAO-B inhibition assay. To be noted: for LiPE: LiPE = pIC50 - QPlogPo/w, new analogs and pargyline; for IC50: duplicates; for MAO-B inhibition %: 10 µM, 2h. As for the experimental part: (§1) Both monoamine oxidase A (MAO-A) and B (MAO-B) protein and the reagents for the chromogenic solution of vanillic acid (4-hydroxy-3-methoxylbenzoic acid, 97% purity), 4-aminoantipyrine (reagent grade), horseradish peroxidase and the substrate tyramine hydrochloride (minimum 99% purity) as well as the potassium phosphate buffer, which was prepared using potassium phosphate dibasic trihydrate (≥99% ReagentPlus™) and potassium phosphate monobasic (minimum 98% purity, molecular biology tested), were purchased from Sigma-Aldrich (St. Louis, MO, USA) for the spectrophotometric assay.
(§2) The protocol for continuous spectrophotometric assay (Holt et al., [1997]) was followed in the activity measurements. The assay was performed in 0.2 M potassium phosphate buffer pH 7.6 on 96-well plates (Nunc™ 96F microwell plate without a lid, Nunc A/S, Roskilde, DK) in 200 μl total volume. The chromogenic solution containing 1 mM vanillic acid, 500 μM 4-aminoantipyrine and 8 U/ml horseradish peroxidase in 0.2 M potassium phosphate buffer pH 7.6 was mixed anew for each measurement. 5 mM tyramine solution was used as the substrate. In order to determine the activity of both MAO-B and MAO-A, concentration series as duplicates were prepared. The protein was combined with the chromogenic solution and incubated 30 min at 37°C. The background signal was measured using multilabel reader (Victor^TM X4, 2030 Multilabel Reader, PerkinElmer, Waltham, MA, USA) at A490 before reaching the total 200 μl volume by adding 20 μl of tyramine to final concentration of 0.5 mM on the plate. As a result, the final concentration of the chromogenic solution on the plate was 250 μM vanillic acid, 125 μM 4-aminoantipyrine and 2 U/ml horseradish peroxide. After adding the substrate, the plates were measured 300 times every 15 s using 1 s exposure time. The device was set to 37°C for the duration of the experiment.
(§3) The experiment conditions should produce absorbance change of ~0.35 (Holt et al., [1997]). […] The same wide panel of coumarin derivatives was additionally used to analyze the MAO-A inhibition at 100 μM (Table 1, Supplementary Table S1).
(§4) The measured data was then fitted on a curve using non-linear regression with the equation for log[inhibitor] vs. response. The IC50 values were therefore determined based on the curve fit. The fitted curves are shown on –log scale in Supplementary Figures S1, S2.

In the next data set the target is T3, human CYP1A2 (Homo sapiens, UniProt P05177).
T3 construct: purchased Corning Inc
T3 sequence (P05177 1-516): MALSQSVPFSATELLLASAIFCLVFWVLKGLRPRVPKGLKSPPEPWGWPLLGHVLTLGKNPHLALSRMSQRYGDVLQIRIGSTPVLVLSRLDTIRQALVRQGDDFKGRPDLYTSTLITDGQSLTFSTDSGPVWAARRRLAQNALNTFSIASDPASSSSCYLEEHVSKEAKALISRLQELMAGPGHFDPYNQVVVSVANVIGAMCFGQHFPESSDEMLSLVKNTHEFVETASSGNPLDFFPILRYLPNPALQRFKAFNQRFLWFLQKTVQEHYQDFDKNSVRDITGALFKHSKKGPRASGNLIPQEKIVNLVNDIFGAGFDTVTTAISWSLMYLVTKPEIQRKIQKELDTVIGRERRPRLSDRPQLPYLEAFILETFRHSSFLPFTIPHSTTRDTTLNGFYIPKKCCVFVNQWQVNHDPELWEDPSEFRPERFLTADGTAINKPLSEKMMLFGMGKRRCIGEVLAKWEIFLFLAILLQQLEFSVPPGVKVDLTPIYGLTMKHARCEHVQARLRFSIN
In words: CYP1A2 inhibition, 7-ethoxyresorufin fluorescence assay. As for the experimental part: Inhibition of CYP1A2 activity was determined with commercial heterologously expressed human CYP1A2 enzyme (Corning Inc., Corning, NY, USA) as described earlier (Korhonen et al., [2005]). The metabolic activity was not in the scope of this particular study. The assay was adapted to the 96-well plate format. In each well, a 150 μL incubation volume contained 100 mM Tris-HCl buffer (pH 7.4), 4.2 mM MgCl2,1 μM 7-ethoxyresorufin, 0.5 pmol of cDNA expressed CYP1A2, […] inhibitor, and a NADPH-generating system. All inhibitors were dissolved in ethanol, and the final concentration of ethanol was 2% in all incubations. The reaction was initiated by adding the NADPH-regenerating system after a 10 min preincubation at 37°C, and after a 20 min incubation, the reaction was terminated by the addition of 110 μL of 80% acetonitrile/20% 0.5 M Tris base. The formed fluorescence was measured with a Victor2 plate counter (Perkin-Elmer Life Sciences Wallac, Turku, Finland) at 570 nm excitation and 616 nm emission.

The target of another data set is T4, MAO-A (Homo sapiens, UniProt P21397).
T4 construct: purchased Sigma-Aldrich
T4 sequence (P21397 1-527): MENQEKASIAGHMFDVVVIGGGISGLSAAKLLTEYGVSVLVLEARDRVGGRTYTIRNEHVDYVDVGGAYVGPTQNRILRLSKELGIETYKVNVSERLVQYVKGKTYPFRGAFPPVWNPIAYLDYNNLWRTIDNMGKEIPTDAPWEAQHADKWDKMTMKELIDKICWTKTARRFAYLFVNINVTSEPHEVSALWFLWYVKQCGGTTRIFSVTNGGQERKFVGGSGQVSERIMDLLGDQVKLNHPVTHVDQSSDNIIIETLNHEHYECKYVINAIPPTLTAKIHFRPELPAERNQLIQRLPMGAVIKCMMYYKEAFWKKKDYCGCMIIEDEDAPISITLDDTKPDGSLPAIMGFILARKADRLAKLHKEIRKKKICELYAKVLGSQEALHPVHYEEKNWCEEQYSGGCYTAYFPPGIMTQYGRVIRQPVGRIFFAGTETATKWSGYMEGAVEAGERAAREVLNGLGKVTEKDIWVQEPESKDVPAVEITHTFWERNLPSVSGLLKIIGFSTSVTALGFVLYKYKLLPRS
As to the kind of experiment: continuous spectrophotometric MAO-A inhibition assay. As to conditions: for MAO-A inhibition %: 100 µM, 1h. As for the experimental part: as §1, §2, §3, §4

Where [1] appears, read: dilution series 50 μM to 1 nM, read-out: MAO-B inhibition IC50.

“And” between values parts separate entries of the source, which are not always exact repeats. Equal values may be shown once. Read-outs that look alike come from different tables or passages of the source.

Consider `CC(=O)Oc1ccc(-c2cc3cc(Cl)cc(Cl)c3oc2=O)cc1F` [derivative 7, 4-(6,8-dichloro-2-oxo-2H-chromen-3-yl)-2-fluorophenyl acetate], for which the inhibition at 1 µM on recombinant human HSD1 was 0%. Besides, on MAO-B, the inhibition at 10 µM came to 91% and the LiPE turned out to be 2.69. Moreover, the IC50 at MAO-B (setting [1]) was found to be 0.888 µM. Besides, half-maximal inhibition against human CYP1A2 (IC50) was put at 46 µM. Also, on MAO-A (100 μM), the inhibition at 100 µM amounted to 0%.

`CN(C)c1ccc(-c2cc3ccc(O)cc3oc2=O)cc1` [derivative 17, 3-(4-(dimethylamino)phenyl)-7-hydroxy-2H-chromen-2-one]: the inhibition at 1 µM at recombinant human HSD1 stood at 5%. At MAO-B, the inhibition at 10 µM is 90.1% and the LiPE was 3.62. Besides, the IC50 on MAO-B (setting [1]) was 0.384 µM. On human CYP1A2, the IC50 stood at 35 µM. Besides, the inhibition at 100 µM against MAO-A (100 μM) is 4.74%.

Regarding `COc1ccc(-c2cc3ccc(OC)cc3oc2=O)cc1` [derivative 37], the HSD1 inhibition % at recombinant human HSD1 came to 0.00%. This compound returned an MAO-B inhibition % on MAO-B of 39.78%. Further, the IC50 against human CYP1A2 came out at 480 µM. The MAO-A inhibition % at MAO-A worked out at 0.00%.

Turning to `COc1ccc2cc(-c3cccc(OCc4ccccc4)c3)c(=O)oc2c1` [derivative 51], the HSD1 inhibition % at recombinant human HSD1 stood at 31.60%. Moreover, at MAO-B, the MAO-B inhibition % is 6.66%. At human CYP1A2, this compound gave an IC50 of 3 µM. This compound gave an MAO-A inhibition % at MAO-A of 0.00%.

Consider `O=c1oc2c(CN3CCCCC3)c(O)ccc2cc1-c1ccccc1` [derivative 50], for which the HSD1 inhibition % on recombinant human HSD1 is recorded as 1.50%. At MAO-B, the “MAO-B inhibition (in words)” value is “activity is lost” and the MAO-B inhibition % was 8.16%. Besides, half-maximal inhibition at human CYP1A2 (IC50) required 65 µM. For the same compound, the MAO-A inhibition % on MAO-A amounted to 0.00%.

For `CC(=O)Oc1cccc2cc(-c3ccc(F)cc3)c(=O)oc12` [derivative 47], the HSD1 inhibition % on recombinant human HSD1 was determined as 0.00%. Further, on MAO-B, the MAO-B inhibition % worked out at 15.81%. On human CYP1A2, this compound returned a 50% inhibitory concentration (IC50) of 17 µM. The same compound yielded an MAO-A inhibition % at MAO-A of 22.33%.

Turning to `COc1ccc2oc(=O)c(-c3ccc(C(F)(F)F)cc3)cc2c1` [derivative 1, 6-methoxy-3-(4-(trifluoromethyl)phenyl)-2H-chromen-2-one], on recombinant human HSD1, the “HSD1 inhibition (in words)” value is on record as “does not inhibit HSD1” and the inhibition at 1 µM worked out at 0%. At MAO-B, the inhibition at 10 µM was 99.5% and the LiPE worked out at 3.17. Further, the IC50 on MAO-B (MAO-B inhibition IC50, dilution series 50 μM to 1 nM) was ~0.056 µM and 0.05 to 0.06 µM and 0.056 µM. The half-inhibitory concentration (IC50) on human CYP1A2 was found to be 124 µM. In addition, on MAO-A (100 μM), the “MAO-A inhibition (in words)” value is given as “does not produce MAO-A inhibition” and the inhibition at 100 µM turned out to be 0%.

With `COc1ccc(-c2cc3cccc(OC(C)=O)c3oc2=O)cc1` [derivative 35], on recombinant human HSD1, the HSD1 inhibition % was found to be 0.00%. At MAO-B, this compound displayed an MAO-B inhibition % of 42.37%. Besides, half-maximal inhibition against human CYP1A2 (IC50) was put at 26 µM. Also, the MAO-A inhibition % on MAO-A came out at 4.08%.

With `C#CCN(C)Cc1ccccc1` [pargyline, reference compound], at MAO-B, the inhibition at 10 µM worked out at 102%.

As to `CC(=O)Oc1cccc2cc(-c3ccc(N(C)C)cc3)c(=O)oc12` [derivative 26], the HSD1 inhibition % on recombinant human HSD1 stood at 0.00%. For the same compound, the MAO-B inhibition % on MAO-B came to 66.79%. This compound showed an IC50 against human CYP1A2 of 7 µM. The MAO-A inhibition % on MAO-A is listed as 0.00%.

Take `COc1cc(OC)cc(-c2cc3cc(Cl)cc(Cl)c3oc2=O)c1` [derivative 34]: on recombinant human HSD1, the HSD1 inhibition % was 0.30%. Besides, the MAO-B inhibition % on MAO-B amounted to 46.01%. Also, the IC50 against human CYP1A2 worked out at 30 µM. The MAO-A inhibition % at MAO-A is 0.00%.

Take `COc1ccc(-c2cc3cc(OC(C)=O)ccc3oc2=O)cc1` [derivative 14, 3-(4-methoxyphenyl)-2-oxo-2H-chromen-6-yl acetate]: on recombinant human HSD1, the inhibition at 1 µM is 1%. At MAO-B, the inhibition at 10 µM stood at 75.8%. The LiPE on MAO-B came out at 2.73. The half-maximal inhibitory concentration (IC50) on MAO-B (setting [1]) came to 8.48 µM; against human CYP1A2, 87.5 µM.

At MAO-B, `COc1ccc(-c2cc3cc(Cl)cc(Cl)c3oc2=O)cc1` [derivative 32] yielded an MAO-B inhibition % of 47.77%. Also, at human CYP1A2, the IC50 was determined as 800 µM. At MAO-A, this compound showed an MAO-A inhibition % of 0.00%.

Regarding `COc1ccc2cc(-c3ccc(OC(C)=O)c(F)c3)c(=O)oc2c1` [derivative 6, 2-fluoro-4-(7-methoxy-2-oxo-2H-chromen-3-yl)phenyl acetate], at recombinant human HSD1, the inhibition at 1 µM is 21%. Besides, on MAO-B, the inhibition at 10 µM came to 99.9% and the LiPE turned out to be 4.25. On MAO-B (setting [1]), the IC50 was ~0.189 µM and 0.189 µM. The inhibition at 100 µM against MAO-A (100 μM) turned out to be 0%.

These data come from article PMC5840146, “Structure-Activity Relationship Analysis of 3-Phenylcoumarin-Based Monoamine Oxidase B Inhibitors” (Frontiers in Chemistry, 2018).
